Measured values from US6204293A, “Inhibitors of protein isoprenyl transferases” (University of Pittsburgh, priority 1998, dated 2001).
Where a name gives a salt, the structure may show the parent alone. Read-outs that look alike come from different tables or passages of the source. One block for each compound: values may come before it.

Biological target: T1, Rat brain protein farnesyltransferase (Rattus norvegicus, UniProt Q02293+Q04631)
T1 construct: Rat brain protein farnesyltransferase activity is measured; from tissue; host or cells: rat brain
T1 sequence (Q02293 whole entry, one chain of several): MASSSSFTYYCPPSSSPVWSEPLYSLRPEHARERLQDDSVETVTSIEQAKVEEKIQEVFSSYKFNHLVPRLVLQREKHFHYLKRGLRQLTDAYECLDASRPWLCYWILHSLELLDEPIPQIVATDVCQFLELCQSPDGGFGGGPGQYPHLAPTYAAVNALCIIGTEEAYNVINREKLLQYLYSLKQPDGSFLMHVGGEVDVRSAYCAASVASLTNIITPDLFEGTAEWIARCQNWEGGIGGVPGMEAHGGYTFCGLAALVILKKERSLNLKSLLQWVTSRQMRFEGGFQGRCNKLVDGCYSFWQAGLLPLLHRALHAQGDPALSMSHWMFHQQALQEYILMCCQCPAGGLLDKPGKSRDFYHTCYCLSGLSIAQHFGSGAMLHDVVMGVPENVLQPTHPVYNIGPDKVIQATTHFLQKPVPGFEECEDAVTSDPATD
Experiment: % inhibition of farnesylation, scintillation proximity assay with biotin-K Ras B fragment
Assay type: biochemical
Conditions: for % inhibition at 1 × 10^-7 M: Table 3; for inhibition at 1 µM: read-out: % inhibition at 1 × 10^-6 M
Summary of the method: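 Rat brain enzyme, purified through three steps, in a scintillation proximity assay kit with biotin-K Ras B fragment substrate at 0.1 mM final. Value is % inhibition of farnesylation.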

- % inhibition at 1 × 10^-7 M: 97%
SMILES: CSCC[C@H](NC(=O)c1ccc(/C=C/c2ccc(Oc3ccccc3[N+](=O)[O-])cc2)cc1-c1ccccc1C)C(=O)O [Example 856]

- % inhibition at 1 × 10^-7 M: 92%
SMILES: CSCC[C@H](NC(=O)c1ccc(CCc2ccc(Oc3ccccc3N)cc2)cc1-c1ccccc1C)C(=O)O [Example 857]

- % inhibition at 1 × 10^-8 M (Table 4, 1 × 10^-8 M): 60%
SMILES: CSCC[C@H](NC(=O)c1ccc(/C=C/c2ccc(Oc3cccc(Cl)c3)cc2)cc1-c1ccccc1C)C(=O)O [Example 858]

- % inhibition at 1 × 10^-7 M: 86%
SMILES: CSCC[C@H](NC(=O)c1ccc(CCc2ccc(Oc3cccc(Cl)c3)cc2)cc1-c1ccccc1C)C(=O)O [Example 859]

- % inhibition at 1 × 10^-8 M (Table 4, 1 × 10^-8 M): 85%
SMILES: CSCC[C@H](NC(=O)c1ccc(CCc2ccc(Oc3ccc(Cl)cc3)cc2)cc1-c1ccccc1C)C(=O)O [Example 860]

- % inhibition at 1 × 10^-7 M: 65%
SMILES: CSCC[C@H](NC(=O)c1ccc(/C=C/c2ccc(Oc3cccc([N+](=O)[O-])c3)cc2)cc1-c1ccccc1C)C(=O)O [Example 861]

- % inhibition at 1 × 10^-6 M (Table 2, 1 × 10^-6 M): 95%
SMILES: CSCC[C@H](NC(=O)c1ccc(CNc2ccc(N3CCCCC3)cc2)cc1-c1ccccc1C)C(=O)O [Example 862]

- % inhibition at 1 × 10^-7 M: 72%
SMILES: CSCC[C@H](NC(=O)c1ccc(CNc2ccc(N3CCOCC3)cc2)cc1-c1ccccc1C)C(=O)O [Example 863]

- % inhibition at 1 × 10^-7 M: 84%
SMILES: CSCC[C@H](NC(=O)c1ccc(CNc2ccc(Oc3ccccc3)cc2)cc1-c1ccccc1C)C(=O)O [Example 864]

- % inhibition at 1 × 10^-6 M (Table 2, 1 × 10^-6 M): 62%
SMILES: CSCC[C@H](NC(=O)c1ccc(CN2CCN(C(=O)OC(C)(C)C)CC2)cc1-c1ccccc1C)C(=O)O [Example 866]

- % inhibition at 1 × 10^-6 M (Table 2, 1 × 10^-6 M): 71%
SMILES: CSCC[C@H](NC(=O)c1ccc(CN2CCN(c3ccccc3)CC2)cc1-c1ccccc1C)C(=O)O [Example 867]

SMILES: CSCC[C@H](NC(=O)c1ccc(COCc2ccc(-c3ccc(F)cc3)o2)cc1-c1cccc2ccccc12)C(=O)O [Example 868, N-[4-(5-(4-fluorophenyl)furan-2-ylmethoxymethyl)-2-naphth-1-ylbenzoyl]methionine lithium salt]
- inhibition at 1 µM: 89%

SMILES: CSCC[C@H](NC(=O)c1ccc(COCc2ccc(-c3ccc(F)cc3)o2)cc1-c1ccc(F)cc1Cl)C(=O)O [Example 869, N-[4-(5-(4-fluorophenyl)furan-2-ylmethoxymethyl)-2-(2-chloro-4-fluorophenyl)benzoyl]methionine lithium salt]
- inhibition at 0.1 µM (read-out: % inhibition at 1 × 10^-7 M): 92%

- inhibition at 1 µM (Table 2, 1 × 10^-6 M): 74%
SMILES: CSCC[C@H](NC(=O)c1ccc(COCc2ccc(-c3ccc(F)cc3)o2)cc1-c1ccccc1C(F)(F)F)C(=O)O [Example 872, N-[4-(5-(4-fluorophenyl)furan-2-ylmethoxymethyl)-2-(2-trifluoromethylphenyl)benzoyl]methionine Lithium salt]

- % inhibition at 1 × 10^-8 M (Table 4, 1 × 10^-8 M): 68%
SMILES: CSCC[C@H](NC(=O)c1ccc(CN(Cc2cncs2)S(=O)(=O)c2ccc(C)cc2)cc1-c1ccccc1C)C(=O)O [Example 877]

- % inhibition at 1 × 10^-6 M (Table 2, 1 × 10^-6 M): 95%
SMILES: CSCC[C@H](NC(=O)c1ccc(CN(Cc2cncs2)S(C)(=O)=O)cc1-c1ccccc1C)C(=O)O [Example 878]

SMILES: CSCC[C@H](NC(=O)c1ccc(OCCCc2ccccc2)cc1-c1ccccc1C)C(=O)O [Example 879, N-[4-(3-phenylpropoxy)-2-(2-methylphenyl)benzoyl]methionine, lithium salt]
- inhibition at 1 µM: 95%

- % inhibition at 1 × 10^-8 M (Table 4, 1 × 10^-8 M): 95%
SMILES: CSCC[C@H](NC(=O)c1ccc(CN(CCC2CCCCC2)C2CC2)cc1-c1ccccc1C)C(=O)O [Example 880]

- % inhibition at 1 × 10^-8 M (Table 4, 1 × 10^-8 M): 69%
SMILES: CSCC[C@H](NC(=O)c1ccc(CN(Cc2cncs2)C2CCSCC2)cc1-c1ccccc1C)C(=O)O [Example 881]

- inhibition at 0.01 µM (read-out: % inhibition at 1 × 10^-8 M, Table 4, 1 × 10^-8 M): 79%
SMILES: CSCC[C@H](NC(=O)c1ccc(CO[C@H](CSC)CC2CCCCC2)cc1-c1ccccc1C)C(=O)O [Example 882, N-[4-(3-Cyclohexyl-1-methylthiopropan-2-yl)oxymethyl-2-(2-methylphenyl)benzoyl]methionine lithium salt]
